These results are taken from patent US20090312396A1, “METHODS FOR CANCER TREATMENT USING TAK1 INHIBITORS” (AstraZeneca AB, priority 2006, published 2009).

Structures are written as SMILES. Read-outs that look alike come from different tables or passages of the source.

Holding throughout (assay): AlamarBlue proliferation assay, GI50
What all share (format): cell-based
A general note: Resazurin is reduced to fluorescent resorufin, in cell work by metabolically active cells.

In one test the test system is Jurkat. Particulars: Homo sapiens, 72 hours, Table 4, read-out: GI50 Jurkat T-ALL. Here is the method: (§1) The TAK1 inhibitors are known in the art (see for example, WO 2003010158, WO 2003010163 and WO2004063186 the disclosures of which are incorporated by reference herein). All cell lines were plated at 10,000 cells/well in flat-bottomed 96 well plates and dosed with test compounds in triplicate over a 10 point dosing range from 0 to 30 μmolesL^−1. All cell lines were incubated with test compounds for a total of 72 hours. Background levels were determined for a control (undosed) plate within 2 hours of dosing test compounds. Following the dosing period, the extent of proliferation was measured by adding 1/10 (vol/vol) AlamarBlue reagent to every well and incubating the plates for a further 4 hours. The reaction was stopped by the addition of SDS to a final concentration of 0.1%. Fluorescence was measured at 545 nm (excitation) and 600 nm (emission). Growth inhibition 50 (GI50) values were determined for each test compound across the panel.

Another test concerns ARH77. Particulars: Homo sapiens, ARH-77, 72 hours. Here is the method:
as §1

The subject of a further test is SUDHL4. Particulars: Homo sapiens, SU-DHL-4, 72 hours, Table 4, read-out: GI50 SUDHL4 DLBCL. Here is the method:
as §1

The subject of the next test is MEC1. Particulars: Homo sapiens, 72 hours. Here is the method: as §1
A further test has as its system HEL92.1.7. The settings on record: Homo sapiens, HEL 92.1.7, 72 hours, Table 4, read-out: GI50 HEL92.1.7 Erythroleukemia. Here is the method:
as §1

A further test deals with DOHH2. Particulars: Homo sapiens, DOHH-2, 72 hours, Table 4, read-out: GI50 DOHH2 FL. How it is done: as §1
In the next test the test system is WSU-NHL. Particulars: Homo sapiens, 72 hours, Table 4, read-out: GI50 WSU-NHL B-NHL. Here is the method: as §1
The test system of a further test is OCI-LY19. The settings on record: Homo sapiens, 72 hours, Table 4, read-out: GI50 OCI-LY19 DLBCL. Here is the method: as §1
A further test has as its system Karpas231. Particulars: Homo sapiens, 72 hours, Table 4, read-out: GI50 Karpas231 B-ALL. How it is done: as §1
The test system of a further test is KG1a. Particulars: Homo sapiens, KG-1a, 72 hours, Table 4, read-out: GI50 KG1a AML. Here is the method:
as §1

For `COC(C)(C)CNCc1ccc(-c2cc(NC(N)=O)c(C(N)=O)s2)cc1` [Compound 4, 3-[(aminocarbonyl)amino]-5-(4-{[(2-methoxy-2-methylpropyl)amino]methyl}phenyl)thiophene-2-carboxamide], the GI50 was 10100 nM in the test with Jurkat; 3720 nM in the test with ARH77 (Table 4, read-out: GI50 ARH77 Plasma cell leukemia); 3720 nM in the test on ARH77 (Table 5, read-out: GI50 ARH-77 plasma cell leukemia); 3080 nM in the test on SUDHL4; 2990 nM in the test with MEC1 (Table 4, read-out: GI50 MEC1 B-CLL); 2990 nM in the test on MEC1 (Table 6, read-out: GI50 MEC-1 B-CLL). The concentration for 50% growth inhibition (GI50) with HEL92.1.7 was 1470 nM; in the test on DOHH2 it was 101 nM; with WSU-NHL, 270 nM; in the test with OCI-LY19, 54 nM; in the test on Karpas231, 60 nM; with KG1a, 1090 nM.

As a reminder, the GI50 is the concentration giving 50% growth inhibition.
